Measurements reported in patent publication US8691764B2, “Inhibitors of NF-κB activity” (The Research Foundation for the State University of New York, priority 2007, dated 2014).
Where no end group is shown, it is not given here.

Legend:
NF-κB [1] = biological target: T1, NF-κB (Homo sapiens, UniProt P19838+Q04206); experiment: NF-κB activity ELISA (TransBinding NF-κB assay kit), BxPC-3 cells; type: cell-based; parameters: endogenous in cells; host or cells: BxPC-3; conditions: for NF-κB activity with peptides of annexin 1: BxPC-3 cells, 30 μM, 3 h
Method: (§1) NF-κB activity was measured in these cells using the TransBinding NF-κB assay kit and following the instructions of the manufacturer (Panomics). Briefly, nuclear extracts obtained as described above, were incubated for 30 min in an ELISA plate coated with NF-κB consensus DNA sequence to which p50 protein can bind. After binding, antibody against p50 was added and incubated for 1 hour, followed by HRP-conjugated antibody for 1 hour. Afterwards, luminol/enhancer solution and stable peroxide solution were added and chemoluminescence was detected using a luminometer (Bio-Rad).

annexin 1 = experiment: Induction of annexin 1 in BxPC-3 cells, Western blot of nuclear and cytoplasmic extracts; type: cell-based, human; conditions: for expression of annexin 1: 5 mM conventional ASA, 100 μM cortisone; for annexin 1 expression with conventional NSAIDs: 6 h, each at 1 mM
Method: The human pancreatic cancer cell line, BxPC-3, or the colon cancer cell line HT-29, both from ATCC (Manassas, Va.) were maintained and grown in RPMI 1640 or McCoy's 5A medium (Cellgro) supplemented with 10% fetal bovine serum (HyClone) and 1% penicillin/streptomycin (Cellgro) in a humidified incubator at 37° C. and 5% CO2.
The cell fractions were obtained as described by Andrews and Faller (N. C. Andrews and D. V. Faller, Nucleic Acids Res. 19:2499 (1991)) with modification. Briefly, the cells were pelleted after treatment and washed three times with PBS. The cell pellets were resuspended in ice cold buffer A (10 mM HEPES, pH 7.9, 10 mM KCl, 1.5 mM MgCI2, 0.5 mM DTT, 0.5 mM PMSF) with protease inhibitor cocktail (Sigma) and incubated on ice for 15 min with occasional mixing by gently tapping the tube. The cell lysates were centrifuged up to 5000 rpm for three times. The supernatants were collected as cytoplasmic extracts. Nuclear pellets were washed with buffer A and resuspended in buffer C (20 mM HEPES, pH 7.9, 450 mM NaCl, 1.5 mM MgCI2, 0.2 mM EDTA, 0.5 mM DTT, 0.5 mM PMSF, 25% Glycerol) with protease inhibitor cocktail (Sigma) and incubated on ice for 30 min with occasional mixing to extract nuclear proteins. Nuclear extracts were cleared by centrifugation (14,800 rpm for 10 min) and the supernatants were collected as nuclear extracts.
For Western blotting, the proteins from both cytoplasmic extracts and nuclear extracts were separated by SDS-polyacrylamide gel electrophoresis and transferred onto PVDF membranes (Millipore). The membranes were blocked in 5% nonfat dry milk-TBS-T (20 mM Tris-HCl, pH 7.5, 500 mM NaCl. 0.3% Tween 20) at room temperature (RT) for an hour and probed with anti-annexin 1, c-IAP-1, c-IAP-2, and TRAF-1 (Santa Cruz Biotechnology, Inc. CA), and anti-Bcl-2 antibodies (Cell Signaling Technology), in 5% nonfat dry milk-TBS-T at 4° C. overnight. The blots were washed three times with TBS-T for 5 min each wash and incubated with horseradish peroxidase-conjugated secondary antibody (Santa Cruz) in 5% nonfat dry milk-TBS-T at RT for an hour. After five washes with TBS-T, the blots were developed with the enhanced chemiluminescence system (ECL™ Western Blotting System, Amersham Biosciences) and exposed to x-ray film according to the manufacturer's instructions. Protein loading was normalized using anti-β-actin antibodies (Santa Cruz Biotechnology, Inc).

[2] = cortisol=1; cited from earlier work
[3] = tested on: SW480 human colon cancer cells; experiment: Apoptosis, Cell Death Detection ELISA, SW480 cells; type: cell-based
Method: Apoptosis was determined using the Cell Death Detection ELISA^PLUS assay kit according to the manufacturer's protocol (Roche, Indianapolis, Ind.). Briefly, the cells were treated with either NO-ASA or Dex for 3 h. Cells were harvested and washed three times with PBS. The cell pellet was resuspended with lysis buffer and incubated for 30 min at RT. Cell […] at 200×g for 10 min. The ELISA assay was performed using 20 μl cell lysate and 80 μl Immunoreagent (containing 72 μl Incubation Buffer, 4 μl Anti-histone-biotin Solution, and 4 μl Anti-DNA-POD Solution) per micro-plate well. The micro-plate was covered with an adhesive foil and incubated on a shaker under gentle shaking at 200 rpm for 2 h at RT. The solution in each well was removed thoroughly by tapping and the pellets were rinsed three times with 200 μl Incubation Buffer. […] The absorbance was measured at 405 nm using the SpectraMax micro-plate reader (Molecular Devices, Sunnyvale).
BxPC-3 or SW480 cells were treated with 30 μM of each of the peptides of annexin 1 for 3 h. NF-κB activity and apoptosis were measured in whole cell lysates using an ELISA assay as described in EXAMPLES 2 and 4. […]

NF-κB [4] = biological target: T1, NF-κB; experiment: NF-κB activity ELISA, SW480 cells; type: cell-based; parameters: endogenous in cells; host or cells: SW480
Method: as §1, with “In the same manner as for NO-ASA, BxPC-3 cells were treated for 6 h with different corticosteroid inflammatory drugs, each at 4 μM, and tested for their ability to induce annexin 1. […] NF-κB activity” for “NF-κB activity”
BxPC-3 or SW480 cells were treated with 30 μM of each of the peptides of annexin 1 for 3 h. NF-κB activity and apoptosis were measured in whole cell lysates using an ELISA assay as described in EXAMPLES 2 and 4. […] These peptides are Ac-Gln-Ala-Trp, as set forth in SEQ ID NO:1, the peptide Ac-Phe-Gln-Ala-Tip, as set forth in SEQ ID NO:2 and the peptide Ac-Phe-Leu-Lys-Gln-Ala-Trp, as set forth in SEQ ID NO:3. Other depicted acetylated peptides are Ac-Phe-Leu-Lys (SEQ ID NO:14), Ac-Lys-Gln-Ala-Trp (SEQ ID NO:15), and Ac-Val-Ser-Glu-Lys-Gln-Ala-Trp (SEQ ID NO:16).

SW480 tumor xenografts = experiment: SW480 human colon cancer xenograft in nude mice; type: in vivo, BALB/c nude mice; conditions: i.p. 40 μg once daily
Method: Female 6-week-old BALB/c nude mice were obtained from The Jackson Laboratory (Bar Harbor, Me.). The animals were housed in a climate- and light-controlled room. Food and water were allowed ad libitum. The SW480 human colon cancer cell line was used to establish xenografts in nude mice. 2×10^6 cells in 100 μl of PBS were injected subcutaneously (s.c.) into the upper portion of the left hind limb of the mice, where they grew as solid tumors. The size of the tumor was measured two times per week using a Venier caliper. The tumor volume was determined using the formula V=L×W(L+W/2)×0.56.
On the 7th day after inoculation, when the tumor size reached an average 240 mm^3, 18 mice were treated with QW-3 administered by i.p. injection of at a dose of 40 μg once daily. The control group (n=18) was administered the vehicle alone. The mice were sacrificed on day 12, and tumors were resected and stored in liquid nitrogen and formalin until further analysis.
Immunohistochemistry was performed on paraffin sections of the tumors. All sections were incubated at 95-100° C. in WCAP reagent (Surgipath) for 30 min, washed and then incubated in 10:1 Methanol:H2O2 for 10 min. Sections were then incubated in rabbit polyclonal PCNA (Santa Cruz, Calif.) or antibody detecting NF-κB activation (Chemicon) for 1 h after which immunoreactivity was detected with an Envision assay kit and DAB reagent (DakoCytomation). All sections were counterstained with haematoxylin and mounted. Negative controls included a non-specific antibody.

T1 sequence (Q04206 whole entry): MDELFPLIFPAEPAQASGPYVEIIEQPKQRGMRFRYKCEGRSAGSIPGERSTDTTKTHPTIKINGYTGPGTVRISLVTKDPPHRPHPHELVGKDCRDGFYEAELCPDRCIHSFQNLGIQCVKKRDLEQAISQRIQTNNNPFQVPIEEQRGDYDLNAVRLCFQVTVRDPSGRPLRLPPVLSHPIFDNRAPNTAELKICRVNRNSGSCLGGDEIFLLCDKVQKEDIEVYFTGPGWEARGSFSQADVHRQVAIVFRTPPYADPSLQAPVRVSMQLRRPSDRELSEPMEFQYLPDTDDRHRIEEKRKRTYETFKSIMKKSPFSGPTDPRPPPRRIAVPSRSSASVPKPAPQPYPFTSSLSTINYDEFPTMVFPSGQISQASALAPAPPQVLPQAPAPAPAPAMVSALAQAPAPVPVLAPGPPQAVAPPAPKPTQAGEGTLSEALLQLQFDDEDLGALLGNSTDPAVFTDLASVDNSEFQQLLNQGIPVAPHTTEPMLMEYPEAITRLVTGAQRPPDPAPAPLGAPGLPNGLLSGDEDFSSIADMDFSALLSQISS
T1 sequence (P19838 1-433 limits assumed): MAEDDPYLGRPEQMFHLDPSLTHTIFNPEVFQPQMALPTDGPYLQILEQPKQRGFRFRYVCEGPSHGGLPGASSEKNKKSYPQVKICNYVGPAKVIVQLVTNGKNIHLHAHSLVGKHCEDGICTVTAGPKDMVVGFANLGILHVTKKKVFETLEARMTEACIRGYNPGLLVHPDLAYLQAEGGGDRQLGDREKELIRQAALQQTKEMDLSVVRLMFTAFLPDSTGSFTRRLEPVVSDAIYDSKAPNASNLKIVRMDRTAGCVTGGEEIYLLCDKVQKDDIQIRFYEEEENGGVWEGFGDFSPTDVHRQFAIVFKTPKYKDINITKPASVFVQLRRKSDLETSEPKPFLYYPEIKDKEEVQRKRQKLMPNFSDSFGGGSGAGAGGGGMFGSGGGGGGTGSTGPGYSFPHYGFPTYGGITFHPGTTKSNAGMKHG

Molecule	annexin 1 expression with conventional NSAIDs (annexin 1)	NF-κB activity with peptides of annexin 1 (NF-κB [1])	other results
CC(=O)Oc1ccccc1C(=O)O [conventional ASA, aspirin]	no effect	–	activity of NF-κB with weak anti-inflammatory drugs (NF-κB [1]; cells and concentration not given): do not inhibit; expression of annexin 1 (annexin 1): failed to induce
C[C@]12CCC(=O)C=C1CC[C@@H]1[C@@H]2[C@@H](O)C[C@@]2(C)[C@H]1CC[C@]2(O)C(=O)CO [cortisol]	–	–	relative anti-inflammatory potency [2]: 1
C[C@]12CCC(=O)C=C1CC[C@@H]1[C@@H]2C(=O)C[C@@]2(C)[C@H]1CC[C@]2(O)C(=O)CO [cortisone]	–	–	expression of annexin 1 (annexin 1): failed to induce
CC(C(=O)O)c1ccc(-c2ccccc2)c(F)c1 (stereo not drawn) [flurbiprofen]	no effect	–	–
CC(C)Cc1ccc(C(C)C(=O)O)cc1 (stereo not drawn) [ibuprofen]	no effect	–	–
COc1ccc2c(c1)c(CC(=O)O)c(C)n2C(=O)c1ccc(Cl)cc1 [indomethacin]	no effect	–	–
CN1C(C(=O)Nc2ccccn2)=C(O)c2ccccc2S1(=O)=O [piroxicam]	no effect	–	–
O=C(O)c1ccccc1O [salicylic acid]	no effect	–	–
CC1=C(CC(=O)O)c2cc(F)ccc2/C1=C\c1ccc([S+](C)[O-])cc1 (stereo not drawn) [sulindac]	no effect	–	–
C[C@]12C=CC(=O)C=C1CC[C@H]1[C@@H]3C[C@@H](O)[C@](O)(C(=O)CO)[C@@]3(C)C[C@H](O)[C@@]12F [triamincinolone]	–	–	relative anti-inflammatory potency [2]: 5
Ac-AMVSEFKQAWFIENEEQQYVQTVK [Ac2-26]	–	inhibited NF-κB activity	–
Ac-Ala-Met-Val-Ser-Glu-Phe-Leu-Lys-Gln-Ala-Trp (Ac-AMVSEFLKQAW) [Ac2-12, commercial peptide of annexin 1]	–	inhibited NF-κB activity	–
Ac-Gln-Ala-Trp [QW-3]	–	inhibited NF-κB activity	apoptosis [3]: enhanced SW480 cell apoptosis; NF-κB activity (NF-κB [4]): inhibited NF-κB activity in a concentration-dependent manner; blood levels of IL-6 (SW480 tumor xenografts): decreased levels of IL-6; blood levels of IL-10 (SW480 tumor xenografts): increased the blood levels of IL-10; tumor growth (SW480 tumor xenografts): suppressed tumor growth; NF-κB activity in tumors (SW480 tumor xenografts; tumor sections): inhibited NF-κB activity; cell proliferation by expression of PCNA (immunohistochemistry) (SW480 tumor xenografts; tumor sections): inhibited cell proliferation
Ac-Phe-Gln-Ala-Trp (Ac-FQAW) [Ac-Phe-Gln-Ala-Tip]	–	inhibited NF-κB activity	–
Ac-Phe-Leu-Lys-Gln-Ala-Trp (Ac-FLKQAW)	–	inhibited NF-κB activity	–
